Laboratory results reported in article PMC6274376, “Naturally Inspired Molecules as Multifunctional Agents for Alzheimer’s Disease Treatment” (Molecules, 2016).

Legend:
SH-SY5Y cells = assay: Inhibition of Cu(II)-mediated intracellular ROS formation (H2DCF-DA probe); assay type: cell-based, human; settings: 5 and 10 µM compound, H2O2 (100 µM)/CuSO4 (25 µM), 30 min
Experimental: Our attention was then focused on the study of the intracellular antioxidant effect mediated by Cu(II) chelation. Therefore, compound 5 was selected to be studied in SH-SH5Y cells for its ability to counteract ROS formation elicited by Fenton reaction with CuSO4 (25 µM) and H2O2 (100 µM), and using 2′,7′-dichlorodihydrofluorescein diacetate (H2DCF-DA) as the fluorescent probe.
The intracellular antioxidant activity of the compounds was evaluated in SH-SY5Y cells as previously described with minor changes. Briefly, the SH-SY5Y cells were seeded in 96-well plates at 3 × 10^4 cells/well and incubated for 24 h at 37 °C in 5% CO2. […] The ROS formation was measured (excitation at 485 nm and emission at 535 nm) using a multilabel plate reader (VICTOR™ X3). The values are expressed as arbitrary fluorescence units (AUF).
Figure 2 Effect of compound 5 on ROS formation elicited by H2O2/CuSO4 in SH-SY5Y cells. […] At the end of the incubation, intracellular ROS formation was determined using a fluorescence probe, as described in the Materials and Methods section. The arbitrary units of fluorescence (AUF) values are shown as mean ± SD of at least three independent experiments (^### P < 0.001 versus untreated cells, *** P < 0.001 versus cells treated with H2O2/CuSO4, at ANOVA with Bonferroni’s Post Hoc Test).

[1] = UV-vis spectrophotometric evaluation of Cu(II) ion complexation; assay type: physicochemical
Description: Chalcone conjugates 4 and 5 were investigated to evaluate their ability to complex Cu(II) ions via a UV-vis spectrophotometric study.
Therefore, we decided to carry on the spectrophotometric measurements in a mixed solvent: aqueous MOPS aqueous buffer […] pH 7.4 /DMF in 1:4 ratio, respectively. Flavonoids bearing the 4-carbonyl-5-hydroxyl chelation site have characteristic UV-vis spectra, characterized by a wide and non-structured band centred around 370–380 nm, with a molar extinction coefficient of 50,000 cm^−1·M^−1 that is attributed to HOMO-LUMO transition with a π-π* character.
All reagents and solvents were used as received (from Aldrich, St. Louis, MO, USA) without further purification: copper(II) sulphate hydrate (≥98%), 3-(N-Morpholino)propanesulfonic acid (MOPS, ≥99.5%), sodium hydroxide (≥98%), N,N-dimethylformamide (spectroscopic grade, DMF). A Milli-Q system (Millipore, Billerica, MA, USA) was used for the purification of water (resistivity ≥18.2 MΩ). MOPS bufferstock solution were obtained by a dissolution in Milli-Q water of 3-(N-morpholino)propane sulphonic acid to a final concentration of 10^−3 M. The pH was corrected with a solution of sodium hydroxide 1 N to a value of pH 7.4. Absorption spectra were recorded on a Perkin-Elmer Lambda 45 spectrophotometer at room temperature. Spectrophotometric titrations were performed as follows: stock solutions of ligands (ca. 10^−3 M) were prepared in DMF, diluted down to the desired concentration, in the quartz cuvette, in MOPS buffer 10^−3 M pH 7.4/DMF (1:4) to a final volume of 2.5 mL and then titrated by adding increasing amounts of Cu(II) (3.04 × 10^−3 Min DMF).

hBACE-1 = hBACE-1 (Homo sapiens, UniProt P56817); assay: BACE-1 FRET inhibition assay; assay type: biochemical; settings: FRET assay; average of multiple experiments each in triplicate, ± SEM
Experimental: The new benzophenone-based hybrids 3–7 presented in this study were first evaluated for their in vitro ability to inhibit the enzymatic activity of BACE-1, by means of a biochemical assay performed using the fluorescence resonance energy transfer (FRET) methodology and in comparison to inhibitor IV [22] as reference compound (Table 1). For the most interesting compounds 3–5, endowed with the orto-hydroxycarbonyl substitution pattern, the neuroprotective potential was determined as lack of toxic effects on neuronal cell viability and as Cu(II) chelating activity (Table 2); moreover, their direct interactions with Cu(II) ion were confirmed by a UV-vis spectrophotometric study.
Inhibition studies were performed using the following procedure: 5 μL of test compound (or DMSO) were pre-incubated with 175 μL of enzyme (10.37 nM, final concentration) in 20 mM NaOAc pH 4.5 containing CHAPS (0.1% w/v) for 1 h at r.t.; M-2420 (3 μM, final concentration) was then added and left to react for 15 min. The fluorescence signal was read at λem = 405 nm (λexc = 320 nm). DMSO concentration in the final mixture was maintained below 5% (v/v) to guarantee no significant loss of enzyme activity.Fluorescence intensities with and without inhibitor were compared and the percent inhibition due to the presence of test compounds was calculated. The background signal was measured in control wells containing all the reagents, except theenzymeand subtracted. The % inhibition due to the presence of increasing test compound concentration was calculated by the following expression: 100 − (IFi/IFo × 100) where IFi and IFo are the fluorescence intensities obtained for the enzyme in the presence and in the absence of inhibitor, respectively. Inhibition curves were obtained for each compound by plotting the % inhibition versus the logarithm of inhibitor concentration in the assay sample. The linear regression parameters were determined and the IC50 extrapolated (GraphPad Prism 4.0, GraphPad Software Inc., San Diego, CA, USA).

hBACE-1, sequence (P56817 46-501): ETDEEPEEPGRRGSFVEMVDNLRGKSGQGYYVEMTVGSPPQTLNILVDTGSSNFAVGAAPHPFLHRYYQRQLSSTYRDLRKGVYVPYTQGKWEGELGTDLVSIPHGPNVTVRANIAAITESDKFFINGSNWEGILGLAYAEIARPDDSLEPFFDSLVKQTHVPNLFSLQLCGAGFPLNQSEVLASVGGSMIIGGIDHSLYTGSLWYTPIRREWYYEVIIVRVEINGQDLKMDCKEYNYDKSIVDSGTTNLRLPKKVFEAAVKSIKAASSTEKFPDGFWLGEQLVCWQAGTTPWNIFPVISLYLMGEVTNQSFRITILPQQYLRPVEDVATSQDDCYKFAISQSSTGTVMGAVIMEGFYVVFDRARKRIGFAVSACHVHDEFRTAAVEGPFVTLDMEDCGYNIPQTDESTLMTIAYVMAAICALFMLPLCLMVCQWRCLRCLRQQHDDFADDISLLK

Compound: CN(Cc1ccccc1)Cc1ccc(C(=O)c2ccc(OCCOc3ccc(C(=O)/C=C/c4cccc5ccccc45)c(O)c3)cc2)cc1 [Compound 5, E-1-{4-[2-(4-4-Benzylmethylaminomethylbenzoylphenoxy)ethoxy]-2-hydroxyphenyl}-3-(naphthalen-1-yl)-prop-2-en-1-one]
- ROS formation evoked by H2O2/CuSO4 (arbitrary fluorescence units) (SH-SY5Y cells): significantly decreased
- ability to complex Cu(II) ions ([1]; UV-vis spectra, MOPS buffer pH 7.4/DMF 1:4): able to chelate the selected ion
- association constant (order of magnitude) ([1]; estimated from titration data, 1:1 complex stoichiometry with Cu(II), MOPS pH 7.4/DMF 1:4): ~10^4
- IC50 (hBACE-1): 4.02 ± 0.29 µM
